Results as given in US7531509B2, “Papillosin antimicrobial peptide, a gene coding said peptide, a vector, a transformed organism and a compound containing said organism” (Centre National de la Recherche Scientifique—CNRS, priority 2003, dated 2009).
No end group written: not given here.

How the values were obtained:
[1] = test system: gram-positive and gram-negative bacteria; assay: Spectrum of antibacterial activity (summary); assay type: cell-based; conditions: on gram-positive and gram-negative bacteria
Method: (§1) Complementary tests were carried out to determine the spectrum of activity of papillosin. The minimal bactericidal concentration (MBC) for each bacterial strain tested is determined as follows: The peptide is placed in a solution containing 0.01% acetic acid and 0.2% bovine serum albumin (BSA), then, serial dilutions of 2 2 are realized in the same 0.01% solution of acetic acid and 0.2% BSA. 10 μl of each dilution are incubated in sterile 96-well plates (Becton Dickinson, USA, ref: 18572) in the presence of 100 μl of a bacterial suspension brought to an optical density of 0.001 at 600 nm in the Mueller Hinton environment (MLHB, SIGMA, ref: M-9677).
(§2) The bacterial growth is monitored after 18 hours of incubation under agitation. The MBC is determined by spreading out the content of the first three wells in which no bacterial growth was observed. This spreading out was carried out on Petri dishes on which an agar was poured prepared from the Mueller Hinton environment. These dishes were then incubated 18 hours. The MBC corresponds to the lowest concentration of peptide for which no bacterial colony was observed on the incubated dishes.

M. luteus = assay type: cell-based; conditions: 18 h
Method: as §1, §2

Question: With “GFWKKVGSAAWGGVKAAAKGAAVGGLNALAKHIQ [papillosin]” as the sequence, how does the bacteriolytic activity [1] read?
Answer: powerful bacteriolytic activity

Question: What about the MBC (M. luteus) of the same sequence?
Answer: 0.125 to 0.25 µM
